In publication PMC10786919, “Design-rules for stapled peptides with in vivo activity and their application to Mdm2/X antagonists” (Nature Communications, 2024):
Values after ≈ are worked out from the molar mass of the structure shown. Positions of bridges follow the written chain, without caps; N, C: chain ends. Non-standard residues stand in square brackets, D forms with d. Residues, ends and D or L forms follow the SMILES beside them. Lys(N3) = [N-]=[N+]=NCCCC[C@H](N)C(=O)O; R8 = C=CCCCCCC[C@@](C)(N)C(=O)O; Cba = N[C@@H](CC1CCC1)C(=O)O; S5 = C=CCCC[C@](C)(N)C(=O)O; βAla = NCCC(=O)O

What was measured:
[1] = Experimental LogD (partition coefficient); conditions: for logD: not stated, Partition Coeff LogD
[2] = system: CellSensor p53RE-bla HCT-116 Cell Line; conditions: 72 h
Method: (§1) The medium for CellSensor™ p53RE-bla HCT-116 cells was McCoy’s 5 A Medium (GIBCO16600-002) supplied with 10% FBS (Hyclone, SH30406.05), 100 U/100ug/ml of Pen/Strep (SolarBio, P1400) and 5 μg/ml of blasticidin (GIBCO, A11139). The medium for Ca Ski cells was RPMI1640 (Hyclone, SH3080901B) supplied with 10% FBS and 100 U/100ug/ml of Pen/Strep. All cells were kept in humidified incubators with 5% CO2 at 37 °C. Culture media was changed after one day of subculturing and cells were passed again when there was 70–80% confluence. One day before the assay, the cells were trypsinized, collected, counted and viability was determined. […] The plates were kept in humidified incubators with 5% CO2 at 37 °C overnight. Compounds were prepared as a 10 point, 3x serial dilution in 100% DMSO, starting from a top concentration of 10 mM. […] At the end of the incubation the assay plate was equilibrated at room temperature for approximately 30 minutes prior to the addition of 25 uL of CellTiter-Glo® 2.0 Reagent. The assay plate was mixed for 2 minutes on an orbital shaker to induce cell lysis. Next, the plate was incubated at room temperature for 10 minutes to stabilize the luminescent signal prior to recording the luminescence on a plate reader.

Ca Ski cell line = conditions: 72 h
Method: as §1

[3] = Lactate dehydrogenase (LDH) release assay; format: cell-based; conditions: LDH: Cytotoxicity assay EC50
Summary of the method: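 Membrane damage measured as lactate dehydrogenase release (CytoTox-ONE kit) from p53-responsive β-lactamase reporter HCT116 cells plated at 8000 per well. Final DMSO 0.5%; geometric mean reported from a minimum of three biological replicates.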

in vitro = conditions: Nanoclick permeability assay EC50
Summary of the method: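 Azido-peptide permeability was read as loss of NanoBRET signal (donor 450 nm, acceptor 610 nm) after adding NanoBret618-azide at 10 μM final.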

[4] = Solubility assay (kinetic solubility, PBS pH 7); format: physicochemical; conditions: pH 7, PBS; for solubility kinetic: pH 7, aqueous buffer, kinetic from dmso stock, read-out: Solubility
Summary of the method: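 Std: 10 mM stock → 100 µM in ACN/MeOH/DMSO (10:80:10). Sol. [µM] = (sample peak area / std peak area) × std conc.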

| SMILES | logD [1] | EC50 [2] [µM] | EC50 (Ca Ski cell line) [µM] | EC50 [3] [µM] | EPSA (physchem) [A^2] | cell entry EC50 (in vitro) [µM] | solubility kinetic [4] [µM] | Partition Coeff LogD [1] | Solubility [4] |
| --- | --- | --- | --- | --- | --- | --- | --- | --- | --- |
| CC(=O)N[C@@H](CCCCN=[N+]=[N-])C(=O)NCCC(=O)N[C@@H](CC(C)C)C(=O)N[C@H](C(=O)N[C@@H](Cc1ccccc1)C(=O)N[C@]1(C)CCCCCCC=CCCC[C@@](C)(C(=O)N[C@@H](CO)C(=O)N[C@@H](C)C(=O)N[C@@H](C)C(N)=O)NC(=O)[C@H](CC2CCC2)NC(=O)[C@H](Cc2c[nH]c3ccccc23)NC(=O)[C@H](C)NC(=O)[C@H](Cc2c[nH]c3ccccc23)NC(=O)[C@H](Cc2ccc(O)cc2)NC(=O)[C@H](CCC(=O)O)NC1=O)[C@@H](C)O [MP-187] (Ac-[Lys(N3)][βAla]LTF[R8]EYWAW[Cba][S5]SAA-NH2; staple 6-13) | 3.14 | 7.27 | > 49.8 | > 50 | 242 | 0.247 | 3.5 (≈ 7.1 µg/mL) |  |  |
| CC(=O)N[C@@H](CCCCN=[N+]=[N-])C(=O)NCCC(=O)N[C@@H](CCC(=O)O)C(=O)N[C@H](C(=O)N[C@@H](Cc1ccccc1)C(=O)N[C@]1(C)CCCCCCC=CCCC[C@@](C)(C(=O)N[C@@H](CO)C(=O)N[C@@H](C)C(=O)N[C@@H](C)C(N)=O)NC(=O)[C@H](CC2CCC2)NC(=O)[C@H](CCC(N)=O)NC(=O)[C@H](C)NC(=O)[C@H](Cc2c[nH]c3ccccc23)NC(=O)[C@H](Cc2ccc(O)cc2)NC(=O)[C@H](CCC(=O)O)NC1=O)[C@@H](C)O [MP-178] | 2.47 | 2.74 | > 49.8 | > 50 | 254 | 0.292 | 169 (≈ 336 µg/mL) |  |  |
| CC(=O)N[C@@H](CCCCN=[N+]=[N-])C(=O)NCCC(=O)N[C@@H](CC(C)C)C(=O)N[C@H](C(=O)N[C@@H](Cc1ccccc1)C(=O)N[C@]1(C)CCCCCCC=CCCC[C@@](C)(C(=O)N[C@@H](CCCNC(=N)N)C(=O)N[C@@H](C)C(=O)N[C@@H](C)C(N)=O)NC(=O)[C@H](CC2CCC2)NC(=O)[C@H](CCC(N)=O)NC(=O)[C@H](C)NC(=O)[C@H](Cc2c[nH]c3ccccc23)NC(=O)[C@H](Cc2ccc(O)cc2)NC(=O)[C@H](CCC(=O)O)NC1=O)[C@@H](C)O [MP-557] (Ac-[Lys(N3)][βAla]LTF[R8]EYWAQ[Cba][S5]RAA-NH2; staple 6-13) |  | 2.04 | > 49.8 | > 50 | 219 | 0.136 |  | Poorly Behaved | Poorly Behaved |
| CC(=O)N[C@@H](CCCCN=[N+]=[N-])C(=O)NCCC(=O)N[C@@H](CCCNC(=N)N)C(=O)N[C@H](C(=O)N[C@@H](Cc1ccccc1)C(=O)N[C@]1(C)CCCCCCC=CCCC[C@@](C)(C(=O)N[C@@H](CO)C(=O)N[C@@H](C)C(=O)N[C@@H](C)C(N)=O)NC(=O)[C@H](CC2CCC2)NC(=O)[C@H](CCC(N)=O)NC(=O)[C@H](C)NC(=O)[C@H](Cc2c[nH]c3ccccc23)NC(=O)[C@H](Cc2ccc(O)cc2)NC(=O)[C@H](CCC(=O)O)NC1=O)[C@@H](C)O [MP-552] (Ac-[Lys(N3)][βAla]RTF[R8]EYWAQ[Cba][S5]SAA-NH2; staple 6-13) | 2.81 | 4.32 | 39.9 | > 50 | 230 | 0.0896 | 2 (≈ 4.03 µg/mL) |  |  |
| CC(=O)N[C@@H](CCCCN=[N+]=[N-])C(=O)NCCC(=O)N[C@@H](CC(C)C)C(=O)N[C@H](C(=O)N[C@@H](Cc1ccccc1)C(=O)N[C@]1(C)CCCCCCC=CCCC[C@@](C)(C(=O)N[C@@H](CO)C(=O)N[C@@H](C)C(=O)N[C@@H](C)C(N)=O)NC(=O)[C@H](CC2CCC2)NC(=O)[C@H](CCCNC(=N)N)NC(=O)[C@H](C)NC(=O)[C@H](Cc2c[nH]c3ccccc23)NC(=O)[C@H](Cc2ccc(O)cc2)NC(=O)[C@H](CCC(=O)O)NC1=O)[C@@H](C)O [MP-556] (Ac-[Lys(N3)][βAla]LTF[R8]EYWAR[Cba][S5]SAA-NH2; staple 6-13) | 3.15 | 3.14 | > 49.8 | > 50 | 221 | 0.149 |  |  |  |
| CC(=O)N[C@@H](CCCCN=[N+]=[N-])C(=O)NCCC(=O)N[C@@H](Cc1c[nH]cn1)C(=O)N[C@H](C(=O)N[C@@H](Cc1ccccc1)C(=O)N[C@]1(C)CCCCCCC=CCCC[C@@](C)(C(=O)N[C@@H](CO)C(=O)N[C@@H](C)C(=O)N[C@@H](C)C(N)=O)NC(=O)[C@H](CC2CCC2)NC(=O)[C@H](CCC(N)=O)NC(=O)[C@H](C)NC(=O)[C@H](Cc2c[nH]c3ccccc23)NC(=O)[C@H](Cc2ccc(O)cc2)NC(=O)[C@H](CCC(=O)O)NC1=O)[C@@H](C)O [MP-173, AZIDE-ATSP-7041 (L1H)] (Ac-[Lys(N3)][βAla]HTF[R8]EYWAQ[Cba][S5]SAA-NH2; staple 6-13) | 2.73 | 5.14 | 35.3 | > 50 | 232 | 0.0406 | 5 (≈ 9.97 µg/mL) |  |  |
| CC(=O)N[C@@H](CCCCN=[N+]=[N-])C(=O)NCCC(=O)N[C@@H](CC(C)C)C(=O)N[C@H](C(=O)N[C@@H](Cc1ccccc1)C(=O)N[C@]1(C)CCCCCCC=CCCC[C@@](C)(C(=O)N[C@@H](CO)C(=O)N[C@@H](C)C(=O)N[C@@H](C)C(N)=O)NC(=O)[C@H](CC2CCC2)NC(=O)[C@H](CCC(=O)O)NC(=O)[C@H](C)NC(=O)[C@H](Cc2c[nH]c3ccccc23)NC(=O)[C@H](Cc2ccc(O)cc2)NC(=O)[C@H](CCC(=O)O)NC1=O)[C@@H](C)O [MP-181] | 2.74 | 4.64 | > 49.8 | > 50 | 249 | 0.304 | 179 (≈ 353 µg/mL) |  |  |
| CC(=O)N[C@@H](CCCCN=[N+]=[N-])C(=O)NCCC(=O)N[C@@H](Cc1c[nH]c2ccccc12)C(=O)N[C@H](C(=O)N[C@@H](Cc1ccccc1)C(=O)N[C@]1(C)CCCCCCC=CCCC[C@@](C)(C(=O)N[C@@H](CO)C(=O)N[C@@H](C)C(=O)N[C@@H](C)C(N)=O)NC(=O)[C@H](CC2CCC2)NC(=O)[C@H](CCC(N)=O)NC(=O)[C@H](C)NC(=O)[C@H](Cc2c[nH]c3ccccc23)NC(=O)[C@H](Cc2ccc(O)cc2)NC(=O)[C@H](CCC(=O)O)NC1=O)[C@@H](C)O [MP-183] (Ac-[Lys(N3)][βAla]WTF[R8]EYWAQ[Cba][S5]SAA-NH2; staple 6-13) | 3.04 | 5.74 | 38.5 | > 50 | 247 | 0.229 | 19 (≈ 38.8 µg/mL) |  |  |
| CC(=O)N[C@@H](CCCCN=[N+]=[N-])C(=O)NCCC(=O)N[C@@H](CC(C)C)C(=O)N[C@H](C(=O)N[C@@H](Cc1ccccc1)C(=O)N[C@]1(C)CCCCCCC=CCCC[C@@](C)(C(=O)N[C@@H](CO)C(=O)N[C@@H](C)C(=O)N[C@@H](C)C(N)=O)NC(=O)[C@H](CC2CCC2)NC(=O)[C@H](CCC(N)=O)NC(=O)[C@H](Cc2c[nH]c3ccccc23)NC(=O)[C@H](Cc2c[nH]c3ccccc23)NC(=O)[C@H](Cc2ccc(O)cc2)NC(=O)[C@H](CCC(=O)O)NC1=O)[C@@H](C)O [MP-186] (Ac-[Lys(N3)][βAla]LTF[R8]EYWWQ[Cba][S5]SAA-NH2; staple 6-13) | 3.26 | 5.8 | 21.5 | > 50 | 238 | 0.194 |  |  |  |
